Experiments:
[1] = target: T1, SMARCA4-HiBiT HeLa cells (protein which is expressed from the SMARCA4 gene) (Homo sapiens, UniProt P51532); experiment: SMARCA4 degradation assay (HiBiT-fusion HeLa cell line, 24 h, luminescence); format: cell-based
T1 construct: protein which is expressed from the SMARCA2 and SMARCA4 genes; host or cells: HeLa (SMARCA4-HiBiT engineered line)
Method in brief: (§1)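 HeLa cells carrying HiBiT-tagged SMARCA2 or SMARCA4 were seeded at 8,000 cells/well, allowed to attach overnight at 37° C., then given compounds in a 10-point dilution series (typically 10 μM to 300 pM) for 24 hours at 37° C. Remaining tagged protein was read by HiBiT lytic luminescence, and DC50s came from dose-response curves.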

[2] = target: T2, SMARCA2-HiBiT HeLa cells (protein which is expressed from the SMARCA2 gene) (Homo sapiens, UniProt P51531); experiment: SMARCA2 degradation assay (HiBiT-fusion HeLa cell line, 24 h, luminescence); format: cell-based
T2 construct: protein which is expressed from the SMARCA2 and SMARCA4 genes; host or cells: HeLa (SMARCA2-HiBiT engineered line)
T2 sequence (P51531 whole entry, the tested form may be a part): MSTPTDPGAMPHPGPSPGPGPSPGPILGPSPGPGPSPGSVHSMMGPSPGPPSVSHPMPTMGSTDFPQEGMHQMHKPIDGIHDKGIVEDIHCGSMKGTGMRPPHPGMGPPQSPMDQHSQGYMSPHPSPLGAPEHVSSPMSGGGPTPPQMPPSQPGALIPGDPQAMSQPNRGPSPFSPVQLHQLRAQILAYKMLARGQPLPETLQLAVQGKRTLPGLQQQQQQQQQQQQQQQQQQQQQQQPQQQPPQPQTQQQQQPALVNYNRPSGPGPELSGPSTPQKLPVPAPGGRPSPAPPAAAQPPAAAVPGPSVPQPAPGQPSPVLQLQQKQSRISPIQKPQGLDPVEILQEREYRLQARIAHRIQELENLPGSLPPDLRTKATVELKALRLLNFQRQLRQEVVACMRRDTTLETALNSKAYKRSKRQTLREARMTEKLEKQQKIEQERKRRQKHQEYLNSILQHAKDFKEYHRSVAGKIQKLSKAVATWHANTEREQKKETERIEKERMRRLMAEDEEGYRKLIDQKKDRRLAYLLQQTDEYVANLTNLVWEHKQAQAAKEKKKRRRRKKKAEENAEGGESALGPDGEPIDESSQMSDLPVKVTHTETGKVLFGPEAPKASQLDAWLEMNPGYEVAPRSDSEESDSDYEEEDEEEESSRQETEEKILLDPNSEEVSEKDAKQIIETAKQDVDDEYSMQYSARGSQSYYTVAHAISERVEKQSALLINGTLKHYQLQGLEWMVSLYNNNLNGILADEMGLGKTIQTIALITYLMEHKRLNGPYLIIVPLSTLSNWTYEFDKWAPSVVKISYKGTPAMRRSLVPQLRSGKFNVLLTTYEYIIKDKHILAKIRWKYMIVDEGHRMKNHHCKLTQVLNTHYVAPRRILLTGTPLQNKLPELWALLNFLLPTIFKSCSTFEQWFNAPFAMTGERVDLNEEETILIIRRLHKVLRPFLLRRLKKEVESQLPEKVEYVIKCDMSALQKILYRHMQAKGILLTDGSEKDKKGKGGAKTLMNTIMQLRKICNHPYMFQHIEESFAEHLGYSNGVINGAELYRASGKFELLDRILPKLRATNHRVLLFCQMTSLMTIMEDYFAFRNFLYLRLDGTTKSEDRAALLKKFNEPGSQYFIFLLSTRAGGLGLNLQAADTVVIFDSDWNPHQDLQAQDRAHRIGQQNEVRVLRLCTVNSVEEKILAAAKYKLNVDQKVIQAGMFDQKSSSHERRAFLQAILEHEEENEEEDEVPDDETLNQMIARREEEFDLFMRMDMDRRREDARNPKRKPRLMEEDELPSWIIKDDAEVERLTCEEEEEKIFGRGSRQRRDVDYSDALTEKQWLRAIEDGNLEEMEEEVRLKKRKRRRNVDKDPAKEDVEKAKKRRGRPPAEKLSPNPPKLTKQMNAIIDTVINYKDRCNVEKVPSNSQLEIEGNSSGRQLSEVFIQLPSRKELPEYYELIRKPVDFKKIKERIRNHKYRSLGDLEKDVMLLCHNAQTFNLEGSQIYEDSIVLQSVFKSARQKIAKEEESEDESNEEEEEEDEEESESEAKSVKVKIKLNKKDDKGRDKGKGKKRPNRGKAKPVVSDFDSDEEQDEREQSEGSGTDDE
Method in brief: as §1

T1 sequence (P51532 whole entry, the tested form may be a part): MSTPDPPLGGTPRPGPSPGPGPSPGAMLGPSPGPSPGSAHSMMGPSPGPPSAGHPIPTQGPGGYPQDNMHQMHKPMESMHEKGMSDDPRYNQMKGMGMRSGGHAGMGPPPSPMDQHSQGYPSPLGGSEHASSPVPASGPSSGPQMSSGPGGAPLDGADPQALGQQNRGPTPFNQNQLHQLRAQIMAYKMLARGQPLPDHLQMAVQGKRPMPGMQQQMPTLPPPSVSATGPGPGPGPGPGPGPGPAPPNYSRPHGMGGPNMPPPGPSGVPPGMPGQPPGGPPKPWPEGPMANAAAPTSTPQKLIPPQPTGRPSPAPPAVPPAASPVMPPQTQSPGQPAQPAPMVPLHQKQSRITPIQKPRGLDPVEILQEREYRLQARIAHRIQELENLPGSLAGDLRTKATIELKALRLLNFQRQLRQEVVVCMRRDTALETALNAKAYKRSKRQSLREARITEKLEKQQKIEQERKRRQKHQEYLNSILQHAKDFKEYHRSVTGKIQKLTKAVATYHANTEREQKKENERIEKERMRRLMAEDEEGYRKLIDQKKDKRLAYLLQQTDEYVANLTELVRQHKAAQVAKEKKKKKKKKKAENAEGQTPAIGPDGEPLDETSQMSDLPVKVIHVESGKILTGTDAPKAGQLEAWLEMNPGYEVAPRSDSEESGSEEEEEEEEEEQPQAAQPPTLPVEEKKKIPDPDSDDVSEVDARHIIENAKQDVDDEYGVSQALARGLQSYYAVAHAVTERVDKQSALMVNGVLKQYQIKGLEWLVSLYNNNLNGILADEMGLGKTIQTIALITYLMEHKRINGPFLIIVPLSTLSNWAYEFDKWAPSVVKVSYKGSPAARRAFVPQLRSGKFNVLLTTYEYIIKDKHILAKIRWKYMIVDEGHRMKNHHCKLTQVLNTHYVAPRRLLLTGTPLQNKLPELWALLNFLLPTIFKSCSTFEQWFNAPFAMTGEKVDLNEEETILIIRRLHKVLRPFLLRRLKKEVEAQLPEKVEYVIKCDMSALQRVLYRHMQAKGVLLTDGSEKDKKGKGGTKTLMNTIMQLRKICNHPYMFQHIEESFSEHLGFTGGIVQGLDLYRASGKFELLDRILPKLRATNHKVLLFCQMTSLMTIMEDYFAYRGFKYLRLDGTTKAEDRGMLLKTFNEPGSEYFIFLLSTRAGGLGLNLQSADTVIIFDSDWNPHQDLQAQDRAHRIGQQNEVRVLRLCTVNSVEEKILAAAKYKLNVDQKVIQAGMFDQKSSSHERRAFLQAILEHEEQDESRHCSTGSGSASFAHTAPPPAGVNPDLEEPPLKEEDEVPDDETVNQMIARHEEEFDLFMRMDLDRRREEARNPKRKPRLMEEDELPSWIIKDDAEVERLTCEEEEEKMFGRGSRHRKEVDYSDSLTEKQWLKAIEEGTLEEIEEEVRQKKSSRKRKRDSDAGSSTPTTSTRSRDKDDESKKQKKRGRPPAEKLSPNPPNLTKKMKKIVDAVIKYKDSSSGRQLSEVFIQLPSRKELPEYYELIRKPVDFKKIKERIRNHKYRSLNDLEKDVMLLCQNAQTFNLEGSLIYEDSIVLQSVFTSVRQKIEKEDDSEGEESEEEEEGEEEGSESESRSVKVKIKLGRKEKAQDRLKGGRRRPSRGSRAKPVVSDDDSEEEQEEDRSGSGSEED

DC50 [1] [nM]	inhibition at 1 µM [1] [%]	DC50 [2] [nM]	SMARCA2 % Degradation @ 1 μM [2]	SMILES
< 50	30 to 70	50 to 500	++ (++=30-70%)	Nc1nnc(-c2ccccc2O)cc1N1CCC2(CCCN(c3ccnc(C#CCO)n3)C2)CC1 [Compound P-123, 2-(6-amino-5-(2-(2-(3-hydroxyprop-1-yn-1-yl)pyrimidin-4-yl)-2,9-diazaspiro[5.5]undecan-9-yl)pyridazin-3-yl)phenol]
50 to 500	> 70	50 to 500	++ (++=30-70%)	CCOc1cc(N2CCCN(c3cc(-c4ccccc4O)nnc3N)CC2)nc(C#CCNC(=O)c2cc3ncccn3n2)n1 [Compound P-124, N-(3-(4-(4-(3-amino-6-(2-hydroxyphenyl)pyridazin-4-yl)-1,4-diazepan-1-yl)-6-ethoxypyrimidin-2-yl)prop-2-yn-1-yl)pyrazolo[1,5-a]pyrimidine-2-carboxamide]
50 to 500	30 to 70	50 to 500	++ (++=30-70%)	Nc1nnc(-c2ccccc2O)cc1N1CCCN(c2ccnc(C#CCO)n2)CC1 [Compound P-125, 2-(6-amino-5-(4-(2-(3-hydroxyprop-1-yn-1-yl)pyrimidin-4-yl)-1,4-diazepan-1-yl)pyridazin-3-yl)phenol]
50 to 500	30 to 70	50 to 500	++ (++=30-70%)	COCc1cc(N2CCCN(c3cc(-c4ccccc4O)nnc3N)CC2)nc(C#CCNC(=O)c2nn(C)c(C)c2C)n1 [Compound P-126, N-(3-(4-(4-(3-amino-6-(2-hydroxyphenyl)pyridazin-4-yl)-1,4-diazepan-1-yl)-6-(methoxymethyl)pyrimidin-2-yl)prop-2-yn-1-yl)-1,4,5-trimethyl-1H-pyrazole-3-carboxamide]
50 to 500	> 70	50 to 500	++ (++=30-70%)	COCc1cc(N2CCCN(c3cc(-c4ccccc4O)nnc3N)CC2)nc(C#CCNC(=O)c2cc3ncccn3n2)n1 [Compound P-127, N-(3-(4-(4-(3-amino-6-(2-hydroxyphenyl)pyridazin-4-yl)-1,4-diazcpan-1-yl)-6-(methoxymethyl)pyrimidin-2-yl)prop-2-yn-1-yl)pyrazolo[1,5-a]pyrimidine-2-carboxamide]
50 to 500	30 to 70	< 50	+++ (+++=>70%)	Nc1nnc(-c2ccccc2O)cc1N1CCCN(c2ccnc(C#CCOc3ncco3)n2)CC1 [Compound P-128, 2-(6-amino-5-(4-(2-(3-(oxazol-2-yloxy)prop-1-yn-1-yl)pyrimidin-4-yl)-1,4-diazepan-1-yl)pyridazin-3-yl)phenol]
50 to 500	30 to 70	50 to 500	++ (++=30-70%)	Nc1nnc(-c2ccccc2O)cc1N1CCC2(CCCN(c3ccnc(C#CCNC(=O)c4cc5n(n4)CCC5)n3)C2)CC1 [Compound P-129, N-(3-(4-(9-(3-amino-6-(2-hydroxyphenyl)pyridazin-4-yl)-2,9-diazaspiro[5.5]undecan-2-yl)pyrimidin-2-yl)prop-2-yn-1-yl)-5,6-dihydro-4H-pyrrolo[1,2-b]pyrazole-2-carboxamide]
50 to 500	30 to 70	50 to 500	++ (++=30-70%)	Cn1nccc1OCC#Cc1nccc(N2CCCN(c3cc(-c4ccccc4O)nnc3N)CC2)n1 [Compound P-131, 2-(6-amino-5-(4-(2-(3-((1-methyl-1H-pyrazol-5-yl)oxy)prop-1-yn-1-yl)pyrimidin-4-yl)-1,4-diazepan-1-yl)pyridazin-3-yl)phenol]
50 to 500	30 to 70	50 to 500	++ (++=30-70%)	Nc1nnc(-c2ccccc2O)cc1N1CCCN(c2ccnc(C#Cc3cnc4cnccn34)n2)CC1 [Compound P-135, 2-(6-amino-5-(4-(2-(imidazo[1,2-a]pyrazin-3-ylethynyl)pyrimidin-4-yl)-1,4-diazepan-1-yl)pyridazin-3-yl)phenol]
50 to 500	30 to 70	50 to 500	++ (++=30-70%)	Nc1nnc(-c2ccccc2O)cc1N1CCCN(c2ccnc(C#CCN3CCOCC3)n2)CC1 [Compound P-136, 2-(6-amino-5-(4-(2-(3-morpholinoprop-1-yn-1-yl)pyrimidin-4-yl)-1,4-diazepan-1-yl)pyridazin-3-yl)phenol]
500 to 5000	30 to 70	500 to 5000	++ (++=30-70%)	Nc1nnc(-c2ccccc2O)cc1N1CCCN(c2ccnc(C#CCN3CCS(=O)(=O)CC3)n2)CC1 [Compound P-137, 4-(3-(4-(4-(3-amino-6-(2-hydroxyphenyl)pyridazin-4-yl)-1,4-diazepan-1-yl)pyrimidin-2-yl)prop-2-yn-1-yl)thiomorpholine 1,1-dioxide]
50 to 500	30 to 70	50 to 500	+++ (+++=>70%)	Nc1nnc(-c2ccccc2O)cc1N1CCCN(c2ccnc(C#CCn3ccc(-c4ccccn4)n3)n2)CC1 [Compound P-138, 2-(6-amino-5-(4-(2-(3-(3-(pyridin-2-yl)-1H-pyrazol-1-yl)prop-1-yn-1-yl)pyrimidin-4-yl)-1,4-diazepan-1-yl)pyridazin-3-yl)phenol]

SMILES	DC50 [1] [nM]	inhibition at 1 µM [1] [%]	DC50 [2] [nM]	SMARCA2 % Degradation @ 1 μM [2]
Cn1ccc(NCC#Cc2nccc(N3CC4CCC(C3)N4c3cc(-c4ccccc4O)nnc3N)n2)n1 [Compound P-130, 2-(6-amino-5-(3-(2-(3-((1-methyl-1H-pyrazol-3-yl)amino)prop-1-yn-1-yl)pyrimidin-4-yl)-3,8-diazabicyclo[3.2.1]octan-8-yl)pyridazin-3-yl)phenol]	50 to 500	30 to 70	50 to 500	+++ (+++=>70%)
Nc1nnc(-c2ccccc2O)cc1N1CC2CCC(C1)N2c1ccnc(C#CCn2nnc3ccccc32)n1 [Compound P-132, 2-(5-(8-(2-(3-(1H-benzo[d][1,2,3]triazol-1-yl)prop-1-yn-1-yl)pyrimidin-4-yl)-3,8-diazabicyclo| 3.2.1 |octan-3-yl)-6-aminopyridazin-3-yl)phenol]	500 to 5000	30 to 70	500 to 5000	++ (++=30-70%)
Nc1nnc(-c2ccccc2O)cc1N1CC2CCC(C1)N2c1ccnc(C#CCn2cccn2)n1 [Compound P-133, 2-(5-(8-(2-(3-(1H-pyrazol-1-yl)prop-1-yn-1-yl)pyrimidin-4-yl)-3,8-diazabicyclo[3.2.1]octan-3-yl)-6-aminopyridazin-3-yl)phenol]	50 to 500	30 to 70	50 to 500	++ (++=30-70%)
CN(C)CC#Cc1nccc(N2C3CCC2CN(c2cc(-c4ccccc4O)nnc2N)C3)n1 [Compound P-134, 2-(6-amino-5-(8-(2-(3-(dimethylamino)prop-1-yn-1-yl)pyrimidin-4-yl)-3,8-diazabicyclo[3.2.1]octan-3-yl)pyridazin-3-yl)phenol]	< 50	30 to 70	50 to 500	++ (++=30-70%)

From patent US20260265238A1, “COMPOUNDS AND PHARMACEUTICAL COMPOSITIONS THAT DEGRADE SWI/SNF-RELATED MATRIX-ASSOCIATED ACTIN-DEPENDENT REGULATOR OF CHROMATIN SUBFAMILY A” (Plexium, Inc., priority 2023, published 2026)
